Columns and labels:
Type in all cases: in vivo
Plasmodiophora brassicae [1] = assay: Cabbage clubroot control test, pot test (Example 1 / Comparative Example 1); parameters: key to Disease control value: {1−(treatment severity/control severity)}×100; key to Disease severity: Σ(plants×index 0-4)/(plants×4)×100; 0 = no clubroot; settings: for Disease control value / Disease severity: 60 days after settled planting
Procedure: A chemical solution for spraying at 50 ppm was prepared by diluting 9.4% w/w cyazofamid (Ranman [trade name] flowable, manufactured by Ishihara Sangyo Kaisha Ltd.) with water.
A spore suspension of Plasmodiophora brassicae (fungus density: 1×10^5 fungi/g dry soil) was inoculated into a sterilization soil adjusted to pH of 6.2 with Sandoseto and after introducing the resulting test soil into a 1/5000 a pot, a cabbage (variety: Okina) seedling grown in a cell seedling tray (128 cells/seedling box) was settled-planted by establishing five plantings for each test section having a size of 0.02 m^2 per one plant. Just after the settled planting, 3 days, 7 days, 10 days and 14 days after the settled planting, the chemical solution for spraying prepared in (1) was applied by soil drench at a ratio of 250 ml/plant. Sixty days after the settled planting, the number of each index of clubroot adhesion to the root was investigated. For comparison, the same test was carried out on a control section where a soil drench treatment with the chemical solution for spraying was not applied.
The test was carried out by the same method as in Example 1(2) except that in place of the soil drench treatment with the chemical solution for spraying, 30 kg/10 a of 0.3% flusulfamide (dust formulation of Nebijin [trade name], manufactured by Mitsui Chemicals Agro, Inc.) was applied to the test soil just before settled planting and incorporated into the soil by means of a small mixer (interfusion depth: 15 cm).
In Example 1 and Comparative Example 1, the adhesion of clubroot was investigated by pulling out the root of cabbage. The adhesion of clubroot was investigated by calculating the disease severity using the following formula. In addition, the weight of cabbage in the aerial part was measured. Furthermore, the test result was shown by the average value of five plantings.
(§1) Disease severity={Σ(number of each index of diseased plants×disease index)/(number of plants surveyed×4)}×100
(§2) Disease control value={1−(treatment disease severity/control disease severity)}×100
(§3) 0: No adhesion of clubroot, 1: clubroot adhesion to lateral root, 2: clubroot adhesion to the entire lateral root or clubroot adhesion to a part of tap root, 3: adhesion of large clubroot to tap root, and 4: clubroot adhesion to the entire tap root.

Plasmodiophora brassicae [2] = assay: Cabbage clubroot control test, farm field (Example 2 / Comparative Example 2); parameters: key to Disease control value: control value = {1 − (treated severity/control severity)}×100; key to Disease severity: severity = Σ(plants×index 0–4)/(plants surveyed×4)×100; settings: for Disease control value / Disease severity: 77 days after settled planting
Excerpt: as §1, §2, §3
A spore suspension of Plasmodiophora brassicae was sprayed on the entire farm field by using a watering pot to have a fungus density of 1×10^4 fungi/g dry soil. In this farm field, a cabbage (variety: Okina) seedling grown in a cell seedling tray (128 cells/seedling box) was settled-planted by establishing two plantings for each test section containing ten plants (interplant distance: 30 cm, interrow space: 30 cm, planting in two rows). Just after the settled planting, 4 days, 7 days and 11 days after settled planting, the chemical solution for spraying prepared by the same method as in Example 1(1) was drenched into the soil in a ratio of 250 ml/plant. Seventy-seven days after the settled planting, the number of each index of clubroot adhesion to the root was investigated. For comparison, the same test was carried out on a control section where a soil drench treatment with the chemical solution for spraying was not applied.
The test was carried out by the same method as in Example 2 except that in place of the soil drench treatment with the chemical solution for spraying, a chemical solution for spraying prepared by the same method as in Example 1(1) was sprayed on a cabbage (variety: Okina) seedling grown in a cell seedling tray (128 cells/seedling box) at a concentration of 2 liters/cell seedling tray by using a watering pot and these seedlings were settled-planted.
The disease severity and disease control value of Example 2 and Comparative Example 2 were determined by the same methods as in Example 1 and Comparative Example 1. In addition, the weight of cabbage in the aerial part was measured. Furthermore, the test result was shown by the average value of two plantings.

Plasmodiophora brassicae [3] = assay: Cabbage clubroot control test, pot test, cyazofamid vs chlorothalonil (Example 3 / Comparative Example 3); parameters: key to Disease control value: control value = (1 − treated/control severity) × 100; key to Disease severity: severity = Σ(plants × index 0-4)/(plants × 4) × 100; settings: for Disease control value / Disease severity: 57 days after settled planting
Excerpt: as §1, §2, §3
A spore suspension of Plasmodiophora brassicae (fungus density: 1×10^5 fungi/g dry soil) was inoculated into a sterilization soil adjusted to pH of 6.0 with Sandoseto and after introducing the resulting test soil into a 1/5000 a pot, a cabbage (variety: Okina) seedling grown in a cell seedling tray (128 cells/seedling box) was settled-planted by establishing five plantings for each test section having a size of 0.02 m^2 for one plant. Immediately, 4 days, 7 days and 14 days after settled planting, the chemical solution for spraying prepared by the same method as in Example 1(1) was drenched into the soil in a ratio of 250 ml/plant. Fifty-seven days after the settled planting, the number of each index of clubroot adhesion to the root was investigated. For comparison, the same test was carried out on a control section where a soil drench treatment with the chemical solution for spraying was not applied.
A chemical solution for spraying in a concentration of 800 ppm was prepared by diluting 40% chlorothalonil (Daconil 1000 [trade name], manufactured by SDS K.K.) with water.
The test was carried out by the same procedure as in Example 3 except that the chemical solution (cyazofamid) for spraying was replaced by the chemical solution (chlorothalonil) for spraying prepared in Comparative Example 3(1).
The disease severity and disease control value of Example 3 and Comparative Example 3 were determined by the same methods as in Example 1 and Comparative Example 1. In addition, the weight of cabbage in the aerial part was measured. Furthermore, the test result was shown by the average value of five plantings.

[4] = 50 ppm soil drench 250 ml/plant 3 days after settled planting
[5] = 50 ppm soil drench 250 ml/plant 7 days after settled planting
[6] = 50 ppm soil drench 250 ml/plant 10 days after settled planting
[7] = 50 ppm soil drench 250 ml/plant 14 days after settled planting
[8] = 50 ppm soil drench 250 ml/plant just after settled planting
[9] = 50 ppm soil drench 250 ml/plant 4 days after settled planting
[10] = 50 ppm soil drench 250 ml/plant 11 days after settled planting
[11] = 50 ppm solution sprayed on seedlings in cell tray, 2 liters/cell seedling tray, just before settled planting

Question: Which “Weight in the aerial part” value (Plasmodiophora brassicae [1]; [4]) does the source give for Cc1ccc(-c2c(Cl)nc(C#N)n2S(=O)(=O)N(C)C)cc1 [cyazofamid, 4-chloro-2-cyano-1-dimethylsulfamoyl-5-(4-methylphenyl)imidazole] here?
Answer: Its value is 156 g.

Question: What about the Disease control value (Plasmodiophora brassicae [1]; [4]) of the same compound?
Answer: The Disease control value was 75.

Question: What about the Disease severity (Plasmodiophora brassicae [1]; [4]) of the same compound?
Answer: Its Disease severity is 20.

Question: What about the “Weight in the aerial part” value (Plasmodiophora brassicae [1]; [5]) of the same compound?
Answer: The value was 168 g.

Question: And the Disease control value (Plasmodiophora brassicae [1]; [5])?
Answer: Its Disease control value is 69.

Question: And the Disease severity (Plasmodiophora brassicae [1]; [5])?
Answer: The Disease severity was 25.

Question: What about the “Weight in the aerial part” value (Plasmodiophora brassicae [1]; [6]) of the same compound?
Answer: Its value is 164 g.

Question: What about the Disease control value (Plasmodiophora brassicae [1]; [6]) of the same compound?
Answer: The Disease control value was 50.

Question: What about the Disease severity (Plasmodiophora brassicae [1]; [6]) of the same compound?
Answer: Its Disease severity is 40.

Question: What about the “Weight in the aerial part” value (Plasmodiophora brassicae [1]; [7]) of the same compound?
Answer: The value was 163 g.

Question: And the Disease control value (Plasmodiophora brassicae [1]; [7])?
Answer: The Disease control value was 31.

Question: And the Disease severity (Plasmodiophora brassicae [1]; [7])?
Answer: Its Disease severity is 55.

Question: What about the “Weight in the aerial part” value (Plasmodiophora brassicae [1]; [8]) of the same compound?
Answer: The value was 164 g.

Question: And the Disease control value (Plasmodiophora brassicae [1]; [8])?
Answer: Its Disease control value is 81.

Question: What about the Disease severity (Plasmodiophora brassicae [1]; [8]) of the same compound?
Answer: Its Disease severity is 15.

Question: What about the “Weight in the aerial part” value (Plasmodiophora brassicae [2]; [9]) of the same compound?
Answer: Its value is 666 g.

Question: And the Disease control value (Plasmodiophora brassicae [2]; [9])?
Answer: Its Disease control value is 87.

Question: And the Disease severity (Plasmodiophora brassicae [2]; [9])?
Answer: The Disease severity was 7.

Question: What about the “Weight in the aerial part” value (Plasmodiophora brassicae [2]; [5]) of the same compound?
Answer: Its value is 579 g.

Question: What about the Disease control value (Plasmodiophora brassicae [2]; [5]) of the same compound?
Answer: The Disease control value was 30.

Question: What about the Disease severity (Plasmodiophora brassicae [2]; [5]) of the same compound?
Answer: The Disease severity was 38.

Question: And the “Weight in the aerial part” value (Plasmodiophora brassicae [2]; [10])?
Answer: The value was 563 g.

Question: And the Disease control value (Plasmodiophora brassicae [2]; [10])?
Answer: The Disease control value was 11.

Question: And the Disease severity (Plasmodiophora brassicae [2]; [10])?
Answer: Its Disease severity is 48.

Question: What about the “Weight in the aerial part” value (Plasmodiophora brassicae [2]; [8]) of the same compound?
Answer: The value was 713 g.

Question: What about the Disease control value (Plasmodiophora brassicae [2]; [8]) of the same compound?
Answer: The Disease control value was 44.

Question: And the Disease severity (Plasmodiophora brassicae [2]; [8])?
Answer: The Disease severity was 30.

Question: What about the “Weight in the aerial part” value (Plasmodiophora brassicae [2]; [11]) of the same compound?
Answer: Its value is 745 g.

Question: And the Disease control value (Plasmodiophora brassicae [2]; [11])?
Answer: Its Disease control value is 44.

Question: What about the Disease severity (Plasmodiophora brassicae [2]; [11]) of the same compound?
Answer: The Disease severity was 30.

Question: And the “Weight in the aerial part” value (Plasmodiophora brassicae [3]; [9])?
Answer: Its value is 109 g.

Question: And the Disease control value (Plasmodiophora brassicae [3]; [9])?
Answer: The Disease control value was 81.

Question: What about the Disease severity (Plasmodiophora brassicae [3]; [9]) of the same compound?
Answer: Its Disease severity is 15.

Question: And the “Weight in the aerial part” value (Plasmodiophora brassicae [3]; [5])?
Answer: The value was 109 g.

Question: And the Disease control value (Plasmodiophora brassicae [3]; [5])?
Answer: Its Disease control value is 88.

Question: And the Disease severity (Plasmodiophora brassicae [3]; [5])?
Answer: The Disease severity was 10.

Question: What about the “Weight in the aerial part” value (Plasmodiophora brassicae [3]; [7]) of the same compound?
Answer: Its value is 91 g.

Question: What about the Disease control value (Plasmodiophora brassicae [3]; [7]) of the same compound?
Answer: Its Disease control value is 0.

Question: And the Disease severity (Plasmodiophora brassicae [3]; [7])?
Answer: Its Disease severity is 80.

Question: And the “Weight in the aerial part” value (Plasmodiophora brassicae [3]; [8])?
Answer: The value was 104 g.

Question: And the Disease control value (Plasmodiophora brassicae [3]; [8])?
Answer: The Disease control value was 100.

Question: What about the Disease severity (Plasmodiophora brassicae [3]; [8]) of the same compound?
Answer: Its Disease severity is 0.

Question: What about the Control effect (Plasmodiophora brassicae [3]; 50 ppm soil drench, treatment within 7 days after settled planting) of the same compound?
Answer: The Control effect was “a control effect which was sufficient for practical use was obtained”.

Source: patent US20130296393A1, “METHOD FOR CONTROLLING CLUBROOT” (ISHIHARA SANGYO KAISHA, LTD., priority 2011, published 2013)
